According to US20260250639A1, “REPROGRAMMING METHOD” (Babraham Institute, priority 2022, published 2026):

How the values were obtained:
NSO4G neural stem cells = experiment: Yamanaka factor-mediated reprogramming of NSO4G neural stem cells to iPSCs, flow cytometry of OCT4-GFP positive cells; assay type: cell-based, mouse; conditions: NSC reprogramming culture, end of reprogramming (day 15)
Source text: FIG. 1: Schematic of method of reprogramming of mouse neural stem cells into induced pluripotent stem (iPS) cells. The mouse neural stem cell (NSC) line NSO4G harbours the GFP transgene under the control of Oct4 regulatory elements. […] Upon reprogramming, iPSCs grow in colonies and express GFP, allowing their visualisation and isolation from the remaining, non-reprogrammed cells.
A-C) Yamanaka factor-mediated reprogramming of NSO4G neural stem cells. D) Yamanaka factor-mediated reprogramming of human fibroblasts. A) Schematic representation of the experimental design for data in panels B and C. B) Flow cytometry plots (left) and quantification data (right) for the number of GFP-positive cells at the end of reprogramming, in the presence of PADI4 or control shRNAs. C) Flow cytometry plots (left) and quantification data (right) for the number of GFP-positive cells at the end of reprogramming, in the presence of CI-amidine or vehicle control. D) Quantification of iPS colonies, as a measure of the degree of reprogramming, after Yamanaka factor-mediated reprogramming of human fibroblasts, in the presence of two independent PADI4 inhibitors (CI-amidine or GSK484) or vehicle controls. […]
To investigate the timing of PADI4 expression during reprogramming, the method of reprogramming neural stem cells (NSCs) to iPSCs described in Theunissen et al. (2011) Current Biology, 21(1): 65-71 (doi: https://doi.org/10.1016/j.cub.2010.11.074) was used (FIG. 1). […] At various reprogramming timepoints, the reprogramming cells were harvested and the levels of mRNA encoding PADI4 and NANOG were quantified by qPCR (FIG. 2A) and protein levels (FIG. 2B). […]
Medium was conditioned by culture on NSC reprogramming cultures (FIG. 5A, “Conditioned medium”, bottom panel) or by incubated in empty plates lacking cells under the same conditions (FIG. 5A, “Control medium”, top panel) and added to new reprogramming (receiving) cultures after every 24 h. Reprogramming efficiency of the receiving cultures was assessed by flow cytometry based GFP quantification at the end of the reprogramming assay (day 15). […]

human fibroblasts = experiment: Yamanaka factor-mediated reprogramming of human fibroblasts, iPS colony count; assay type: cell-based; conditions: human fibroblast reprogramming culture without OCT4-GFP reporter, vs vehicle control
Source text: A-C) Yamanaka factor-mediated reprogramming of NSO4G neural stem cells. D) Yamanaka factor-mediated reprogramming of human fibroblasts. A) Schematic representation of the experimental design for data in panels B and C. B) Flow cytometry plots (left) and quantification data (right) for the number of GFP-positive cells at the end of reprogramming, in the presence of PADI4 or control shRNAs. C) Flow cytometry plots (left) and quantification data (right) for the number of GFP-positive cells at the end of reprogramming, in the presence of CI-amidine or vehicle control. D) Quantification of iPS colonies, as a measure of the degree of reprogramming, after Yamanaka factor-mediated reprogramming of human fibroblasts, in the presence of two independent PADI4 inhibitors (CI-amidine or GSK484) or vehicle controls. The inhibitors were administered throughout the course of reprogramming.
FIG. 10: Inhibition of extracellular chromatin component-sensing pathways inhibits reprogramming. A) Schematic representation of the extra-nuclear DNA sensing pathway cGAS/STING (left panel). Flow cytometry-based quantification of GFP-positive cells at the end of NSC reprogramming (day 15), in the presence of STING inhibitor H-151, vehicle control (DMSO) or no treatment (right panel). B) Schematic representation of the signalling pathway downstream of the Damage Associated Molecular Pattern (DAMP)-sensing Toll-Like Receptor 2 (TLR2; left panel). Flow cytometry-based quantification of GFP-positive cells at the end of NSC reprogramming (day 15), in the presence of TLR2 inhibitor MMG-11, vehicle control (DMSO) or no treatment (right panel). C) Colony count data for quantification of reprogramming of human fibroblast cells at the end of reprogramming (day 40) after treatment with STING inhibitor H-151 (left panel), TLR2 inhibitor MMG-11 (right panel) or vehicle control (DMSO).

[1] = test system: citrullinated histone H3 (H3Cit), product of PADI4 activity; experiment: Western blot for citrullinated histone H3 in conditioned medium of NSC reprogramming cultures; assay type: cell-based, mouse; conditions: conditioned medium from reprogramming cultures, similar total histone H3
Source text: FIG. 7: Citrullinated histones are found in culture medium conditioned by reprogramming cultures. Immunoblot analysis for total histone H3 (top) and two different citrullination marks on histone H3 (middle and bottom) on conditioned medium of NSC reprogramming cells cultured in the presence or absence or the PADI4 inhibitor CI-amidine. Data from two independent experiments are shown. Citrullinated histone H3 is readily detected in the conditioned medium and inhibited by CI-amidine.
Based on this finding, the conditioned medium of Example 4 was analysed for the presence of H3Cit by Western blot (FIG. 7). Citrullinated histone H3 (H3Cit) can be readily detected in the conditioned medium from reprogramming cultures (FIG. 7, middle and lower panels labelled “H3CitR2” and H3CitR8”, lanes labelled “-CI-am”), and this is reduced in conditioned medium from reprogramming cultures in which the PADI4 inhibitor CI-amidine has been added (FIG. 7, middle and lower panels labelled “H3CitR2” and H3CitR8”, lanes labelled “+CI-am”), despite similar levels of total histone H3 being present (FIG. 7, top panel labelled “H3”).

Compound | proportion of OCT4-GFP positive cells (reprogramming cells) at the end of reprogramming (NSO4G neural stem cells) | number of colonies (successfully reprogrammed cells) (human fibroblasts) | citrullinated histone H3 (H3CitR2, H3CitR8) detected in conditioned medium [1]
CCOC(=O)c1ccc(CC(=O)c2ccc(O)c(O)c2O)o1 [MMG-11] | significantly reduced | significantly reduced number of colonies | –
COc1cc(C(=O)N2CC[C@@H](O)[C@@H](N)C2)cc2nc(-c3cc4ccccc4n3CC3CC3)n(C)c12 [GSK484] | – | significantly reduced | –
NC(=O)[C@H](CCCN=C(N)CCl)NC(=O)c1ccccc1 [CI-amidine] | The same result is achieved | significantly reduced | reduced
CCc1ccc(NC(=O)Nc2c[nH]c3ccccc23)cc1 [H-151] | significantly reduced | significantly reduced number of colonies | –
